Measurements reported in patent US20200239530A1, “COMPOUNDS AND METHODS OF MODULATING PROTEIN DEGRADATION” (Vividion Therapeutics, Inc., priority 2017, published 2020).
Where two headings read alike, the source gives them in different places.

What was measured:
Assay type in all cases: binding
Q9BX70 = target: T1, Q9BX70 (Homo sapiens, UniProt Q9BX70); assay: Competitive cysteine profiling, probe competition (Table 2B)
T1 construct: 200 μL of lysate containing 5 mg/ml proteome was treated with 2 μL of 100× compound stock; endogenous in cells
From the text: (§1) The following 96-well sample prep protocol was used for sample preparation.

Q9H1A4 = target: T2, Q9H1A4 (Homo sapiens, UniProt Q9H1A4); assay: as above
T2 construct: Cells were resuspended in cold PBS on ice and sonicated with a probe sonicator to achieve lysis; endogenous in cells
From the text: as §1

Q8WXK3 = target: T3, Q8WXK3 (Homo sapiens, UniProt Q8WXK3); assay: as above
T3 construct: 200 μL of lysate containing 5 mg/ml proteome was treated with 2 μL of 100× compound stock; endogenous in cells
From the text: as §1

[1] = target: T4, cysteine residue illustrated in Table 1A or Table 2A (Homo sapiens, UniProt Q8WV16); assay: Competitive cysteine profiling of cell lysate with desthiobiotin iodoacetamide probe (96-well sample prep); conditions: UniProt Q8WV16; 100 uM
T4 construct: Cells were resuspended in cold PBS on ice and sonicated with a probe sonicator to achieve lysis; endogenous in cells
Method in brief: (§2)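 Sonicated cell lysate (5 mg/ml proteome) was preincubated with compound 1 h at 25 °C, then labelled with desthiobiotin iodoacetamide probe 1 h at 25 °C. After reduction, alkylation and trypsin digestion, probe-labelled peptides were streptavidin-enriched and eluted for mass-spectrometric analysis.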

Q9Y297 = target: T5, Q9Y297 (Homo sapiens, UniProt Q9Y297); assay: Competitive cysteine profiling, probe competition (Table 2B)
T5 construct: 200 μL of lysate containing 5 mg/ml proteome was treated with 2 μL of 100× compound stock; endogenous in cells
From the text: as §1

Q7Z569 = target: T6, Q7Z569 (Homo sapiens, UniProt Q7Z569); assay: as above
T6 construct: 200 μL of lysate containing 5 mg/ml proteome was treated with 2 μL of 100× compound stock; endogenous in cells
From the text: as §1

[2] = target: T7, cysteine residue illustrated in Table 1A or Table 2A (Homo sapiens, UniProt Q8NHY2); assay: Competitive cysteine profiling of cell lysate with desthiobiotin iodoacetamide probe (96-well sample prep); conditions: UniProt Q8NHY2; 100 uM
T7 construct: Cells were resuspended in cold PBS on ice and sonicated with a probe sonicator to achieve lysis; endogenous in cells
Method in brief: as §2

[3] = target: T8, cysteine residue illustrated in Table 1A or Table 2A (Homo sapiens, UniProt Q5T6F0); assay: as above; conditions: UniProt Q5T6F0; 100 uM
T8 construct: Cells were resuspended in cold PBS on ice and sonicated with a probe sonicator to achieve lysis; endogenous in cells
Method in brief: as §2

[4] = target: T9, cysteine residue illustrated in Table 1A or Table 2A (Homo sapiens, UniProt O60826); assay: as above; conditions: UniProt O60826; 100 uM
T9 construct: Cells were resuspended in cold PBS on ice and sonicated with a probe sonicator to achieve lysis; endogenous in cells
Method in brief: as §2

[5] = read-out: KB05_100 uM_percent_inhibition

T2 sequence (Q9H1A4 whole entry): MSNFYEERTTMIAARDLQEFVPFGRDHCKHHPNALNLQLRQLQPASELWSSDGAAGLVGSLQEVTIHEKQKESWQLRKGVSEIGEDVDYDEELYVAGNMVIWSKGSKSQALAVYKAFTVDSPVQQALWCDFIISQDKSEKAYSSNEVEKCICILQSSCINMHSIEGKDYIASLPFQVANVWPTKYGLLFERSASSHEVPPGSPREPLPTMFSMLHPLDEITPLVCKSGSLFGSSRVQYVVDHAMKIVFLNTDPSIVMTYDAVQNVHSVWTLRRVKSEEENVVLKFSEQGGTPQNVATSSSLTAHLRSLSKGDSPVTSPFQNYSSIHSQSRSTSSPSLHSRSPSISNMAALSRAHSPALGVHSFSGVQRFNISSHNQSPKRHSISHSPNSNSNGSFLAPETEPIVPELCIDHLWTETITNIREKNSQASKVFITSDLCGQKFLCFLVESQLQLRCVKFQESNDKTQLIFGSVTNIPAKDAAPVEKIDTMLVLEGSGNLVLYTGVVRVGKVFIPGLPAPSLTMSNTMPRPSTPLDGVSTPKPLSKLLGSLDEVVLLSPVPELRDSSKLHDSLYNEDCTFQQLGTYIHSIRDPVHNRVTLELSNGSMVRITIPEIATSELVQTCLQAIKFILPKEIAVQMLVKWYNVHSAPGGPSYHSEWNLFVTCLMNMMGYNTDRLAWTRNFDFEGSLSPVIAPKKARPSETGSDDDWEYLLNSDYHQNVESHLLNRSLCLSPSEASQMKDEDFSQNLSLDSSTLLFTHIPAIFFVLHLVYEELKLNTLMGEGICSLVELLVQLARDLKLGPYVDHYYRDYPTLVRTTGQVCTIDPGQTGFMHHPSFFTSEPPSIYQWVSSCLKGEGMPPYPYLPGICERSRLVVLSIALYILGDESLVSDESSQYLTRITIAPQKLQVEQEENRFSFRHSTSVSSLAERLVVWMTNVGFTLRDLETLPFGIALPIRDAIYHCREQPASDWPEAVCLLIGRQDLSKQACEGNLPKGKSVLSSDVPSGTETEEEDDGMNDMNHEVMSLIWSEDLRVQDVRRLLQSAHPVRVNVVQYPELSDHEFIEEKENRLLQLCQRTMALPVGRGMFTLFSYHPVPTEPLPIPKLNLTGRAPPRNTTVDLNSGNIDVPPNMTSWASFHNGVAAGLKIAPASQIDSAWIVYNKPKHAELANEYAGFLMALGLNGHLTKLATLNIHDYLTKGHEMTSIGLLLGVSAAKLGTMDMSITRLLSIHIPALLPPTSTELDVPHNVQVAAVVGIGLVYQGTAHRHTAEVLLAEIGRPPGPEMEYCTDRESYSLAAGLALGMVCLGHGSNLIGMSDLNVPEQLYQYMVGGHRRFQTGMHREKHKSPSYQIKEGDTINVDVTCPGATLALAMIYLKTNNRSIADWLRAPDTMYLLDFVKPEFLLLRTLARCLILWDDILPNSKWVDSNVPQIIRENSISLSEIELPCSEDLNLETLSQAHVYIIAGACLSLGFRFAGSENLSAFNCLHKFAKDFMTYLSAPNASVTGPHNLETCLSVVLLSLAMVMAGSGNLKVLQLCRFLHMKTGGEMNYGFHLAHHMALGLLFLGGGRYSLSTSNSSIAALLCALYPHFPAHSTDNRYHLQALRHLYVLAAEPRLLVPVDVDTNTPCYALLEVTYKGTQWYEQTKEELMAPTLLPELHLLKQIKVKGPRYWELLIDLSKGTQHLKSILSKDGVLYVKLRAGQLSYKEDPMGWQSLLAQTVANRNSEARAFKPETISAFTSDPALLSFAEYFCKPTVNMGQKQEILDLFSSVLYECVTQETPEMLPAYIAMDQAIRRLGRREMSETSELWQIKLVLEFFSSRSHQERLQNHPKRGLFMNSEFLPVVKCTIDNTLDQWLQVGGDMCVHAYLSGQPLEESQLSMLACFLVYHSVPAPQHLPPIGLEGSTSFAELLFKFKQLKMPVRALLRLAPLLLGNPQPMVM
T5 sequence (Q9Y297 whole entry): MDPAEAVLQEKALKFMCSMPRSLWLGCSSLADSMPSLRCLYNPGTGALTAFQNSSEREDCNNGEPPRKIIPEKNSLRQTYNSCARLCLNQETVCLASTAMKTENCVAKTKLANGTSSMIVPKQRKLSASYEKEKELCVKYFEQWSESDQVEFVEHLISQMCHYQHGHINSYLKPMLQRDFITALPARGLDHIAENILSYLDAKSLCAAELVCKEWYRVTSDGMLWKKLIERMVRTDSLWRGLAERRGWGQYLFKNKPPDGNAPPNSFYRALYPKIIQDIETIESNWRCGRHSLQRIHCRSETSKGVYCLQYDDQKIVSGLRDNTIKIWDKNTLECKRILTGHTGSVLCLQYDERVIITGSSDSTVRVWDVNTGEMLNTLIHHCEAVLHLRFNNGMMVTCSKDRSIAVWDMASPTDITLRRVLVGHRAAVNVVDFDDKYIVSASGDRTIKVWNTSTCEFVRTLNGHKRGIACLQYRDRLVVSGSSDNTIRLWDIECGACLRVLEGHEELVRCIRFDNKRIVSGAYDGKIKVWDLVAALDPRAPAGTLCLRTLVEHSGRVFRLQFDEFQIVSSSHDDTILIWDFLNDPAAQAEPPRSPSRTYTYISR
T6 sequence (Q7Z569 whole entry): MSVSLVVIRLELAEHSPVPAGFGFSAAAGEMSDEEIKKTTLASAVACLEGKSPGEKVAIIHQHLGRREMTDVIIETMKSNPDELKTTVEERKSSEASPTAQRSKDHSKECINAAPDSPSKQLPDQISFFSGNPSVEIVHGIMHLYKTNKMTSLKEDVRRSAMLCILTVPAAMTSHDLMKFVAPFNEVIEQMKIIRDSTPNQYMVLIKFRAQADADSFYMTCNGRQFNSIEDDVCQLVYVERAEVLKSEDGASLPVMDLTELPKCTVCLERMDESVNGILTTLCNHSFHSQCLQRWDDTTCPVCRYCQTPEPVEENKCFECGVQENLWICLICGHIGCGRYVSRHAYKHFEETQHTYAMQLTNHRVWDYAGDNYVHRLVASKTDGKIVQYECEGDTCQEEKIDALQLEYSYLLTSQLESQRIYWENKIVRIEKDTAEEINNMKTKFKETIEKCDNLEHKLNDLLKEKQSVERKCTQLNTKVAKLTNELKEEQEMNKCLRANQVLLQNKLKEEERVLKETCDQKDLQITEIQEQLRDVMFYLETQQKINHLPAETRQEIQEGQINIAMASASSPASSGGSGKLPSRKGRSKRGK
T3 sequence (Q8WXK3 whole entry): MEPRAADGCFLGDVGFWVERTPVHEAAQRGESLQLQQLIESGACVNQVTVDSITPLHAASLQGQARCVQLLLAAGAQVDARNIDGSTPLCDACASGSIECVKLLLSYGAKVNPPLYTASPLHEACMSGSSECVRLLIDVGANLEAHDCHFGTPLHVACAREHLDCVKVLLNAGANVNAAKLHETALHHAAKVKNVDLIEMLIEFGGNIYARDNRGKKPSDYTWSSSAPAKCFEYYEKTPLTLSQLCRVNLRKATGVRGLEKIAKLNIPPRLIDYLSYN
T7 sequence (Q8NHY2 whole entry): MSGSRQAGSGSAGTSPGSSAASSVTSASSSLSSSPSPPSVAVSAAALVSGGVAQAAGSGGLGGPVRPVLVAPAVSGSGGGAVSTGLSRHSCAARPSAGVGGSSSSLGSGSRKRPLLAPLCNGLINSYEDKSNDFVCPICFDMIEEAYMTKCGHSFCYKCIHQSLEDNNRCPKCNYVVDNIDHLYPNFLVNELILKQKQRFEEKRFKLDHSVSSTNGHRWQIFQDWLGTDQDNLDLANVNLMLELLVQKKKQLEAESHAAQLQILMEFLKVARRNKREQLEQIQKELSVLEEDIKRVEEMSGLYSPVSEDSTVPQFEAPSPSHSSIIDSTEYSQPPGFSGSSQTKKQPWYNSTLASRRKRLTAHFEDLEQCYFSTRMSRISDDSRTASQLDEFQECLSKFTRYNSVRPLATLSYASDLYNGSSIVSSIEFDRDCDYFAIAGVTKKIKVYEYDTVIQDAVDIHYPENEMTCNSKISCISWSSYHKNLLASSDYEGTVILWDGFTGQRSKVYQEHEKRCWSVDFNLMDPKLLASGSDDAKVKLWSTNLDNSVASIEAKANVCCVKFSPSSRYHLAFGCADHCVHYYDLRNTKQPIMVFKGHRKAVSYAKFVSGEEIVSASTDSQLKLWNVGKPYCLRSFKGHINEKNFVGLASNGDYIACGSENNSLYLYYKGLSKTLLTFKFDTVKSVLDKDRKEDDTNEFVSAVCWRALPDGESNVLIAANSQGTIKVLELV
T9 sequence (O60826 whole entry): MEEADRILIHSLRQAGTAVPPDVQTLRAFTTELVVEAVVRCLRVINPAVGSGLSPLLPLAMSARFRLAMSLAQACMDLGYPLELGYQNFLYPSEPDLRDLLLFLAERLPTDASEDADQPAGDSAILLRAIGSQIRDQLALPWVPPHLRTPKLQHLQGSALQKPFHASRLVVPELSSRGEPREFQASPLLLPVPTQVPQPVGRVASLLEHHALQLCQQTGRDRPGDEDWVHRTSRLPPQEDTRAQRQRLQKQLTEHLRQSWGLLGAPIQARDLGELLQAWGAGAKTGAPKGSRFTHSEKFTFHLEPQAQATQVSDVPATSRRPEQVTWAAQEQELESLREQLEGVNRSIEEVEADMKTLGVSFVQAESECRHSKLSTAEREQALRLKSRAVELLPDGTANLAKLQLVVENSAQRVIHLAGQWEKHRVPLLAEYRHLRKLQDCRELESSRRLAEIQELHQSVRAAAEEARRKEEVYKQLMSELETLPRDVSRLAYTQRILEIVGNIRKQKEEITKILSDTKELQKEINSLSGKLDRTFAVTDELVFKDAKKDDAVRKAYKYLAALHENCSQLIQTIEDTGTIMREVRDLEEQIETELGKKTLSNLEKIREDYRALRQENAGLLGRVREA

## COc1ccc2c(c1)CCCN2C(=O)CCl [KB02]
Q9BX70; 100 uM, read-out: KB02_100 uM_percent_inhibition
  inhibition at 100 µM: 4%
Q9H1A4; 100 uM
  KB02_100 uM_percent_inhibition: 21%
Q9H1A4; read-out: KB02_100 uM_percent_inhibition
  inhibition at 100 µM: 24%
Q8WXK3; 500 uM, read-out: KB02_500 uM_percent_inhibition
  inhibition at 500 µM: 44%
[1]
  KB02_100 uM_percent_inhibition: 16%

## C=CC(=O)N(c1ccccc1)c1ccc(Br)cc1 [KB05]
Q9Y297; [5]
  inhibition at 100 µM: 43%
Q9H1A4; [5]
  inhibition at 100 µM: 29%
Q7Z569; [5]
  inhibition at 100 µM: 33%
[1]
  KB05_100 uM_percent_inhibition: 26%
[2]
  KB05_100 uM_percent_inhibition: 43%
[3]
  KB05_100 uM_percent_inhibition: 31%
[4]
  KB05_100 uM_percent_inhibition: 22%

## O=C(CCl)Nc1cc(C(F)(F)F)cc(C(F)(F)F)c1 [KBO3]
Q9Y297; 100 uM
  KB03_100 uM_percent_inhibition: 54%
Q9BX70; 500 uM
  KB03_500 uM_percent_inhibition: 40%
Q7Z569; 100 uM
  KB03_100 uM_percent_inhibition: 10%
Q8WXK3; 100 uM
  KB03_100 uM_percent_inhibition: 7%
[2]
  KB03_100 uM_percent_inhibition: 27%
[3]
  KB03_100 uM_percent_inhibition: 11%
[4]
  KB03_100 uM_percent_inhibition: 7%
